Tests used:
P. aeruginosa 25619 = assay: MIC by agar-dilution, P. aeruginosa 25619; type: cell-based; conditions: Pseudomonas aeruginosa, as sodium salt, pH 7.0, inoculum 10^6, read-out: Minimal Inhibitory Concentration
E. coli 73 = assay: MIC by agar-dilution, E. coli 73; type: cell-based; conditions: Escherichia coli, as sodium salt, pH 7.0, inoculum 10^6, read-out: Minimal Inhibitory Concentration
P. vulgaris CN-329 = assay: MIC by agar-dilution, P. vulgaris CN-329; type: cell-based; conditions: Proteus vulgaris, CN329, as sodium salt, pH 7.0, inoculum 10^6, read-out: Minimal Inhibitory Concentration
K. pneumoniae SHIONOGI = assay: MIC by agar-dilution, K. pneumoniae SHIONOGI; type: cell-based; conditions: Klebsiella pneumoniae, as sodium salt, pH 7.0, inoculum 10^6, read-out: Minimal Inhibitory Concentration
S. aureus 077 = assay: MIC by agar-dilution, S. aureus 077; type: cell-based; conditions: Staphylococcus aureus, as sodium salt, pH 7.0, inoculum 10^6, read-out: Minimal Inhibitory Concentration
E. cloacae 233 = assay: MIC by agar-dilution, E. cloacae 233; type: cell-based; conditions: Enterobacter cloacae, as sodium salt, pH 7.0, inoculum 10^6, read-out: Minimal Inhibitory Concentration
S. pyogenes C-203 = assay: MIC by agar-dilution, S. pyogenes C-203; type: cell-based; conditions: Streptococcus pyogenes, C203, as sodium salt, pH 7.0, inoculum 10^6, read-out: Minimal Inhibitory Concentration
E. cloacae 13047 = assay: MIC by agar-dilution, E. cloacae 13047; type: cell-based; conditions: Enterobacter cloacae, as sodium salt, pH 7.0, inoculum 10^6, read-out: Minimal Inhibitory Concentration
S. aureus C-14 = assay: MIC by agar-dilution, S. aureus C-14; type: cell-based; conditions: Staphylococcus aureus, C14, as sodium salt, pH 7.0, inoculum 10^6, read-out: Minimal Inhibitory Concentration
E. coli EC-14 = assay: MIC by agar-dilution, E. coli EC-14; type: cell-based; conditions: Escherichia coli, EC14, as sodium salt, pH 7.0, inoculum 10^6, read-out: Minimal Inhibitory Concentration
S. aureus Smith = assay: MIC by agar-dilution, S. aureus Smith; type: cell-based; conditions: Staphylococcus aureus, as sodium salt, pH 7.0, inoculum 10^6, read-out: Minimal Inhibitory Concentration
E. coli H = assay: MIC by agar-dilution, E. coli H; type: cell-based; conditions: Escherichia coli, as sodium salt, pH 7.0, inoculum 10^6, read-out: Minimal Inhibitory Concentration
E. coli NIHJ JC-2 = assay: MIC by agar-dilution, E. coli NIHJ JC-2; type: cell-based; conditions: Escherichia coli, NIHJJC2, as sodium salt, pH 7.0, inoculum 10^6, read-out: Minimal Inhibitory Concentration
S. aureus 209P JC-1 = assay: MIC by agar-dilution, S. aureus 209P JC-1; type: cell-based; conditions: Staphylococcus aureus, as sodium salt, pH 7.0, inoculum 10^6, read-out: Minimal Inhibitory Concentration
S. pneumoniae I = assay: MIC by agar-dilution, S. pneumoniae I; type: cell-based; conditions: Streptococcus pneumoniae, as sodium salt, pH 7.0, inoculum 10^6, read-out: Minimal Inhibitory Concentration
P. morganii No. 9 = assay: MIC by agar-dilution, P. morganii No. 9; type: cell-based, Proteus morganii; conditions: Morganella morganii, as sodium salt, pH 7.0, inoculum 10^6, read-out: Minimal Inhibitory Concentration
S. marcescens 13880 = assay: MIC by agar-dilution, S. marcescens 13880; type: cell-based; conditions: Serratia marcescens, as sodium salt, pH 7.0, inoculum 10^6, read-out: Minimal Inhibitory Concentration
P. mirabilis PR-4 = assay: MIC by agar-dilution, P. mirabilis PR-4; type: cell-based; conditions: Proteus mirabilis, PR4, as sodium salt, pH 7.0, inoculum 10^6, read-out: Minimal Inhibitory Concentration
K. pneumoniae 363 = assay: MIC by agar-dilution, K. pneumoniae 363; type: cell-based; conditions: Klebsiella pneumoniae, as sodium salt, pH 7.0, inoculum 10^6, read-out: Minimal Inhibitory Concentration
P. vulgaris No. 3 = assay: MIC by agar-dilution, P. vulgaris No. 3; type: cell-based; conditions: Proteus vulgaris, as sodium salt, pH 7.0, inoculum 10^6, read-out: Minimal Inhibitory Concentration
E. coli 377 = assay: MIC by agar-dilution, E. coli 377; type: cell-based; conditions: Escherichia coli, as sodium salt, pH 7.0, inoculum 10^6, read-out: Minimal Inhibitory Concentration

Row | SMILES | MIC (P. aeruginosa 25619) [µg/mL] | MIC (E. coli 73) [µg/mL] | MIC (P. vulgaris CN-329) [µg/mL] | MIC (K. pneumoniae SHIONOGI) [µg/mL] | MIC (S. aureus 077) [µg/mL] | MIC (E. cloacae 233) [µg/mL] | MIC (S. pyogenes C-203) [µg/mL] | MIC (E. cloacae 13047) [µg/mL] | MIC (S. aureus C-14) [µg/mL] | MIC (E. coli EC-14) [µg/mL] | MIC (S. aureus Smith) [µg/mL] | MIC (E. coli H) [µg/mL] | MIC (E. coli NIHJ JC-2) [µg/mL] | MIC (S. aureus 209P JC-1) [µg/mL] | MIC (S. pneumoniae I) [µg/mL] | MIC (P. morganii No. 9) [µg/mL] | MIC (S. marcescens 13880) [µg/mL] | MIC (P. mirabilis PR-4) [µg/mL] | MIC (K. pneumoniae 363) [µg/mL] | MIC (P. vulgaris No. 3) [µg/mL] | other results
1 | CO[C@@]1(NC(=O)C(C(=O)O)c2ccc(O)cc2)C(=O)N2C(C(=O)O)=C(CSc3nnc(C)s3)CO[C@@H]21 (stereo partly drawn) [Compound (1), 7α-methoxy-7β-(α-p-hydroxyphenyl-α-carboxyacetamido)-3-(2-methyl-1,3,4-thiadiazol-5-yl)thiomethyl-1-dethia-1-oxa-3-cephem-4-carboxylic acid] | 25 | 6.25 | 0.39 | 0.78 | 25 | 1.6 | 3.13 | 50 | 25 | 0.78 | 25 | 0.2 | 0.78 | 12.5 | 3.13 | 0.78 | 3.13 | 0.39 | 0.39 | 0.78 | MIC (E. coli 377): 1.56 µg/mL
2 | CO[C@@]1(NC(=O)C(C(=O)O)c2ccc(O)cc2)C(=O)N2C(C(=O)O)=C(CSc3nncs3)CO[C@@H]21 (stereo partly drawn) [Compound (2), 7α-methoxy-7β-(α-p-hydroxyphenyl-α-carboxyacetamido)-3-(1,3,4-thiadiazol-5-yl)thiomethyl-1-dethia-1-oxa-3-cephem-4-carboxylic acid] | 25 | 3.13 | 0.78 | 0.39 | 25 | 6.25 | 3.13 | 25 | 25 | 0.39 | 12.5 | 0.2 | 0.39 | 12.5 | 6.25 | 0.78 | 1.56 | 0.39 | 0.39 | 0.78 | MIC (E. coli 377): 0.78 µg/mL
3 | CO[C@@]1(NC(=O)C(C(=O)O)c2ccsc2)C(=O)N2C(C(=O)O)=C(CSc3nncs3)CO[C@@H]21 (stereo partly drawn) [Compound (4), 7α-methoxy-7β-[α-(3-thienyl)-α-carboxyacetamido]-3-(1,3,4-thiadiazol-5-yl)thiomethyl-1-dethia-1-oxa-3-cephem-4-carboxylic acid] | 25 | 0.78 | 0.2 | 0.2 | 6.25 | 6.25 | 3.13 | 12.5 | 6.25 | 0.1 | 6.25 | 0.1 | 0.2 | 6.25 | 6.25 | 0.2 | 0.39 | 0.2 | 0.2 | 0.39 | MIC (E. coli 377): 0.39 µg/mL
4 | CO[C@@]1(NC(=O)C(C(=O)O)c2ccsc2)C(=O)N2C(C(=O)O)=C(CSc3nnc(C)s3)CO[C@@H]21 (stereo partly drawn) [Compound (3), 7α-methoxy-7β-[α-(3-thienyl)-α-carboxyacetamido]-3-(2-methyl-1,3,4-thiadiazol-5-yl)thiomethyl-1-dethia-1-oxa-3-cephem-4-carboxylic acid] | 25 | 1.56 | 0.1 | 0.2 | 6.25 | 12.5 | 0.78 | 25 | 6.25 | 0.2 | 6.25 | 0.05 | 0.39 | 6.25 | 3.13 | 0.2 | 1.56 | 0.1 | 0.78 | 0.39 | MIC (E. coli 377): 0.78 µg/mL
